The source of these data is PMC4655258 (Enzyme Research, 2015).

Each structure is given as a SMILES string. Where two headings read alike, the source gives them in different places.

For orientation: IC50 means the midpoint of a concentration-inhibition curve. One may read the inhibition as how much of the control response was suppressed.

The test system of data set [1] is CYP1B1. Set-up: method as in PMID 18256205. As to conditions: cited from earlier work.
In data set [2] the target is T1, CYP2A6 (Homo sapiens, UniProt P11509).
T1 construct: purchased BD Bioscience (Woburn, MA); host or cells: baculovirus-infected insect cells (microsomes, supersomes)
T1 sequence (P11509 1-494): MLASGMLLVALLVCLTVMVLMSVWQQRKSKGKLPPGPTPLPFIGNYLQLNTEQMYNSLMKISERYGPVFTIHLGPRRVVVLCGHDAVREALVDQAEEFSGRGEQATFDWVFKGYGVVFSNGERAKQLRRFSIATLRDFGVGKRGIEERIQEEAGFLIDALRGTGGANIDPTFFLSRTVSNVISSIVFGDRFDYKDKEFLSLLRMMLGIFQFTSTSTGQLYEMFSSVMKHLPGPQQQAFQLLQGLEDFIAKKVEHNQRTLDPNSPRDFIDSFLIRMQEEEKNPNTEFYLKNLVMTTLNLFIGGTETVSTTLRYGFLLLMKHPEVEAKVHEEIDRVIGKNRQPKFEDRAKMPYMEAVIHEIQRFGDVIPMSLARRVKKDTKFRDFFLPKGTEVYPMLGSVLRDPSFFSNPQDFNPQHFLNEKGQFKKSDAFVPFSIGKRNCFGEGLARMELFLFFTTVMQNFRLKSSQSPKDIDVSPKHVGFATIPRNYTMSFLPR
Put plainly: Fluorometric HTS enzyme assay, recombinant CYP2A6 (coumarin substrate). Type of data set: biochemical. To be noted: ±SEM, 3 replicate assays; 3 μM coumarin. Here is the method: (§1) IC50 determinations for human CYPs were similar to HTS methods described by Crespi et al.. Unless otherwise stated, the incubations were carried out in a total volume of 200 μL of 50 mM potassium phosphate buffer (pH 7.4) with 1% acetonitrile. The reaction mixtures contained NADPH-regenerating system in potassium phosphate buffer (pH 7.4) and varying amounts of inhibitor (dissolved in 100% acetonitrile) were preincubated at 37°C for 10 minutes (except CYP2A6 which was in 100 mM Tris buffer pH 7.4). The reactions were initiated by the addition of enzyme/substrate mixture (see Table 1), followed by incubation at 37°C for 30 minutes. The fluorescent signal was measured using a SpectraMax GEMINI XPS (Molecular Devices) with excitation and emission wavelengths listed in Table 1. The data were fit to sigmoidal dose-response curves with nonlinear regression and IC50 values calculated using GraphPad Prism 5.

The target of data set [3] is T2, CYP3A4 (Homo sapiens, UniProt P08684).
T2 construct: purchased BD Bioscience (Woburn, MA); host or cells: baculovirus-infected insect cells (microsomes, supersomes)
Put plainly: Fluorometric HTS enzyme assay, recombinant CYP3A4 (BFC substrate). Type of data set: biochemical. As to conditions: recombinant CYP3A4, pH 7.4, probe BFC, at 1 mM. On the procedure:
as §1

The conditions of data set [4]: cited from earlier work.
For data set [5], the target named is T3, CYP1A1 (Homo sapiens, UniProt P04798).
T3 construct: purchased BD Bioscience (Woburn, MA); host or cells: baculovirus-infected insect cells (microsomes, supersomes)
T3 sequence (P04798 1-512): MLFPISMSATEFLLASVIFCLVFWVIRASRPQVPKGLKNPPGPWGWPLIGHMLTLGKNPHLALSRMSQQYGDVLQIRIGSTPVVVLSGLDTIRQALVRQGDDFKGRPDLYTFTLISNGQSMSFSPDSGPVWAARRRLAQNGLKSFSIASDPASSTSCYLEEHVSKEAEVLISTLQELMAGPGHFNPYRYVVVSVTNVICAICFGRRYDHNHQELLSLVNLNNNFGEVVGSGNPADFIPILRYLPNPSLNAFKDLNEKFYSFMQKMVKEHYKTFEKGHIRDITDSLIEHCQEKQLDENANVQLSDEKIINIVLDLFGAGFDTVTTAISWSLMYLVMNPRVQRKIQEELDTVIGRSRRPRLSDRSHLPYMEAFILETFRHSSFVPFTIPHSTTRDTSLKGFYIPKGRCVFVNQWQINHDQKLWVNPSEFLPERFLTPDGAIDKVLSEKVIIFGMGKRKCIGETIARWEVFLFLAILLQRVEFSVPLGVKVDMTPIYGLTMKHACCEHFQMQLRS
The data set can be described thus: Fluorometric HTS enzyme assay, recombinant CYP1A1 (CEC substrate). Type of data set: biochemical. To be noted: ±SEM, 3 replicate assays; 5 μM CEC. Here is the method: as §1

T2 sequence (P08684 whole entry): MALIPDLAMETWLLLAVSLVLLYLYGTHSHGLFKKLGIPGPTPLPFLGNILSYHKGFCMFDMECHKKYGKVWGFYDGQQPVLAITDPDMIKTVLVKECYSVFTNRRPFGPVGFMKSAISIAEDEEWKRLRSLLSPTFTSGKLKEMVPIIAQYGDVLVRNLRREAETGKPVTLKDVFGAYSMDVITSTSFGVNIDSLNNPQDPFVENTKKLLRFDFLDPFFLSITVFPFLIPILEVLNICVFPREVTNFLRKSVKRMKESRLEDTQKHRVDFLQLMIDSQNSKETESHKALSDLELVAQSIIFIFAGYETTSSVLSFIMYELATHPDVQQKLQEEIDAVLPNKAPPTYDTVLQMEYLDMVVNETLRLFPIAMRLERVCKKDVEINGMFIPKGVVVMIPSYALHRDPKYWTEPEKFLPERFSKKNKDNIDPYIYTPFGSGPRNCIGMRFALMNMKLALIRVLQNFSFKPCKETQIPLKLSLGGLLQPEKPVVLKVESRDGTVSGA

For `N#Cc1ccc(C(c2ccc(C#N)cc2)n2cncn2)cc1` [Letrozole], the IC50 in data set [1] (2-hydroxy estradiol formation, read-out: IC50 on CYP1B1, estradiol 2-hydroxylation) was no less than 100 µM; in data set [1] (4-hydroxy estradiol formation, read-out: IC50 on CYP1B1, estradiol 4-hydroxylation), no less than 100 µM; in data set [2] it was 106 ± 34 µM; in data set [5], 69.8 ± 5.3 µM. The inhibition at 30 min, 1 mM in data set [3] was less than 10%. Besides, the “effect of pretreatment on [11C]-vorozole binding in the liver” value in data set [4] (baboon and human liver, pretreatment with letrozole) is on record as “does not block”.
For `CC(=O)N1CCN(c2ccc(OCC3COC(Cn4ccnc4)(c4ccc(Cl)cc4Cl)O3)cc2)CC1` (stereo not shown) [ketoconazole], the “effect of pretreatment on liver pharmacokinetics of [11C]-vorozole binding” value in data set [4] (pretreatment with ketoconazole) was “altered”.
